Source: US9630957B2, “2,3-butanediamide epoxide compound and preparation method and use thereof” (Institute of Pharmacology and Toxicology Academy of …, priority 2014, dated 2017)

Legend:
Vero cells = assay: Cytotoxicity of the compounds for Vero cells (CPE observation, TC50); type: cell-based; details: no virus
Protocol: (§1) 2. Sample treatment: the compounds of the present invention are dissolved in DMSO or diluent to prepare stock solution which is stored at −20° C. The stock solution is formulated to suitable incipient concentration with culture solution immediately before use, and then 3-fold diluted with the culture solution, 8 degrees of dilution each.
(§2) 4. Test Method: Vero cells are seeded into a 96-well culture plate, at 5% CO2, and cultured at 37° C. for 16 hours. The Vero cells are added with different dilutions of drugs, and the degree of cytopathic effect (CPE) in each group is observed. The half toxic concentration (TC50) of each sample for Vero cells is calculated. Vero cells are added with 100TCID50 enterovirus EV71 respectively, and the virus solution is discarded after adsorption at 37° C. for 1 hour, and then drugs with various degrees of dilution are added respectively. Virus control and cell control are set and incubated at 37° C. The degree of cytopathic effect (CPE) in each group is observed when the degree of cytopathic effect (CPE) of virus control group reaches 4+. The half inhibitory concentration (IC50) of each sample for enterovirus EV71 are calculated. Selectivity Index (SI) is calculated according to the following equation: SI=TC50/IC50.

[1] = tested on: enterovirus EV71 (BrCr strain); assay: Activity screening for anti-enterovirus EV71: inhibition of cytopathic effect in Vero cells; type: cell-based; details: 100TCID50, Vero cells, CPE read when virus control reaches 4+, read-out: IC50 (half inhibitory concentration for enterovirus EV71)
Protocol: Test item: Activity screening of the compounds for anti-enterovirus EV71
Test principle: Vero cells are used as viral host. The inhibition of the compound of the invention on the degree of cytopathic effect of Vero cells caused by enterovirus virus EV71 is determined.
1. Virus strain: enterovirus EV71 (BrCr, American Type Culture Collection, ATCC)
as §1
3. Positive control drug: Pirodavir (LGM Pharma), which is a broad-spectrum anti-viral inhibitor.
as §2

Compound: O=C(Nc1nc2ccccc2s1)c1ccc(N(Cc2ccc(F)cc2)C(=O)[C@H]2O[C@@H]2C(=O)Nc2cccc(Cl)c2Cl)cc1 [Compound 25, (2S,3S)—N^2-(4-(benzo[d]thiazol-2-ylcarbamoyl)phenyl)-N^3-(2,3-dichlorophenyl)-N^2-(4-fluorobenzyl)-2,3-epoxybutanediamide]
- melting point: 210.2 to 211.1 °C
- TC50 (half toxic concentration for Vero cells) (Vero cells): 0.82 µg/mL
- IC50 [1]: > 0.27 µg/mL
